Series [1] deals with Rattus norvegicus. The experiment in a line: Ulcerogenic activity in po dosed formalin-induced rat foot paw edema model assessed as ulcer index at antiinflammatory ED50. Format: toxicity, organism-based. Conditions: in vivo.
The test system of series [2] is Rattus norvegicus. The experiment in a line: Antiinflammatory activity in po dosed formalin-induced rat foot paw edema model assessed as paw thickness after 3 hrs. Format: functional.
For series [3], the target named is T1, Prostaglandin G/H synthase 1 (Ovis aries, UniProt P05979).
T1 sequence (P05979 whole entry): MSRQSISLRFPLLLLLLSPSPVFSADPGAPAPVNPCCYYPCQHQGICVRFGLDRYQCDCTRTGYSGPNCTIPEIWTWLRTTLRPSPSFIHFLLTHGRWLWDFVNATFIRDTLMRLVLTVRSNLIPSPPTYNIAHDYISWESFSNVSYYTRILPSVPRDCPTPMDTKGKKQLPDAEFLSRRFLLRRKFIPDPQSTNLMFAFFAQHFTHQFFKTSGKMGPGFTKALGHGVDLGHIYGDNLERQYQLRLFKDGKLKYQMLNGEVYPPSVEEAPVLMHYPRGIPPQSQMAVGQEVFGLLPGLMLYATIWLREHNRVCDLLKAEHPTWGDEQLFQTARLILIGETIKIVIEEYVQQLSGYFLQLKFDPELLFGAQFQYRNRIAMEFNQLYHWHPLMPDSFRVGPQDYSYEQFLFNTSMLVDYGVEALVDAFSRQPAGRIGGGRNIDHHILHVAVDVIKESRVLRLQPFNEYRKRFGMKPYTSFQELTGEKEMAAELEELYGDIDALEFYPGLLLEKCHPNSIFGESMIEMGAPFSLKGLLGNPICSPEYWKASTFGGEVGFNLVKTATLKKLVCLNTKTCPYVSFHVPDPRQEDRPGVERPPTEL
Description: Inhibition of ovine COX1 by enzyme immuno assay.

The subject of series [4] is Rattus norvegicus. Description: Ulcerogenic activity in formalin-induced rat foot paw edema model assessed as ulcer index at 120 umol/kg, po. The series is classed as toxicity, organism-based. Conditions: in vivo.

Calls of active or inactive are those of the source. The calls are words filed in the database; no cut-off is given here.

Consider `Cc1ccc(-c2cc(C(F)(F)F)nn2-c2ccc(S(N)(=O)=O)cc2)cc1` [CELECOXIB], for which the UI in the series with Rattus norvegicus [1] worked out at 2.9. In addition, the ED50 in the series on Rattus norvegicus [2] was 47 µmol/kg.
`NS(=O)(=O)c1ccc(N2N=C(c3ccco3)CC2c2ccc(Cl)cc2)cc1` (configuration not stated): the UI in the series with Rattus norvegicus [1] came out at 4.12. This molecule came in with an IC50 in series [3] of 4.66 µM. The ED50 in the series with Rattus norvegicus [2] came out at 404 µmol/kg.
The corresponding values for `COc1cc(C2CC(c3ccco3)=NN2c2ccc(S(N)(=O)=O)cc2)cc(OC)c1OC` (configuration not stated) are 2.7, 7.36 µM and 179 µmol/kg.
The corresponding values for `NS(=O)(=O)c1ccc(N2N=C(c3cccs3)CC2c2cccs2)cc1` (configuration not stated) are 2.7, 16.4 µM and 144 µmol/kg.
The corresponding values for `NS(=O)(=O)c1ccc(N2N=C(c3cccs3)CC2c2ccc(Cl)cc2)cc1` (configuration not stated) are 2.82, 8.71 µM and 197 µmol/kg.
As to `NS(=O)(=O)c1ccc(N2N=C(c3ccco3)CC2c2ccc(C(F)(F)F)cc2)cc1` (configuration not stated), the UI with Rattus norvegicus [1] is 1.2. In addition, the midpoint of inhibition in series [3], the IC50, lay at 2.14 µM. Further, in the series on Rattus norvegicus [2], the ED50 result was “inactive”.
On the same counts, the results for `NS(=O)(=O)c1ccc(N2N=C(c3ccco3)CC2c2cccs2)cc1` (configuration not stated) are 3.03, 12.3 µM and 469 µmol/kg.
On the same counts, the results for `COc1ccc(C2CC(c3ccco3)=NN2c2ccc(S(N)(=O)=O)cc2)cc1` (configuration not stated) are 3.13, 6.74 µM and 232 µmol/kg.
`CC(C)Cc1ccc(C(C)C(=O)O)cc1` (configuration not stated) [IBUPROFEN]: the median effective dose (ED50) in the series on Rattus norvegicus [2] is 499 µmol/kg. Moreover, the UI with Rattus norvegicus [4] is 20.25.
`NS(=O)(=O)c1ccc(N2N=C(c3ccco3)CC2c2ccco2)cc1` (configuration not stated): in the series with Rattus norvegicus [1], the UI stood at 1.2. In series [3], this molecule had a half-maximal inhibitory concentration (IC50) of 9.65 µM. Besides, the median effective dose (ED50) with Rattus norvegicus [2] was determined as 383 µmol/kg.
Take `NS(=O)(=O)c1ccc(N2N=C(c3ccco3)CC2c2ccccc2)cc1` (configuration not stated): in the series with Rattus norvegicus [1], the UI came to 4.6. Further, 10.2 µM corresponded to half-maximal inhibition in series [3] (IC50). Also, in the series with Rattus norvegicus [2], the ED50 amounted to 238 µmol/kg.
With `NS(=O)(=O)c1ccc(N2N=C(c3cccs3)CC2c2ccc(C(F)(F)F)cc2)cc1` (configuration not stated), the UI in the series on Rattus norvegicus [1] amounted to 3.8. Half-maximal inhibition in series [3] (IC50) required 5.74 µM. Moreover, in the series on Rattus norvegicus [2], the ED50 was 99 µmol/kg.
On the same counts, the results for `COc1ccc(C2CC(c3cccs3)=NN2c2ccc(S(N)(=O)=O)cc2)cc1` (configuration not stated) are 2.97, 11.7 µM and 204 µmol/kg.
As to `NS(=O)(=O)c1ccc(N2N=C(c3cccs3)CC2c2ccco2)cc1` (configuration not stated), the UI in the series on Rattus norvegicus [1] was 4.15. In series [3], this molecule gave an IC50 of 14.6 µM. In the series with Rattus norvegicus [2], the ED50 stood at 209 µmol/kg.
Turning to `COc1cc(C2CC(c3cccs3)=NN2c2ccc(S(N)(=O)=O)cc2)cc(OC)c1OC` (configuration not stated), in series [3], the IC50 stood at 13.4 µM. In the series with Rattus norvegicus [2], the ED50 was 382 µmol/kg.

The record behind these values is ChEMBL document CHEMBL3745634, “Synthesis, cyclooxygenase inhibition, anti-inflammatory evaluation and ulcerogenic liability of new 1,3,5-triarylpyrazoline and 1,5-diarylpyrazole derivatives as selective COX-2 inhibitors” (Bioorg Med Chem Lett, 2016).
